Target: myeloperoxidase (MPO) (Homo sapiens, UniProt P05164)
Test: guaiacol/H2O2 peroxidase activity assay with purified human MPO
Type: biochemical

Chain of myeloperoxidase (MPO) (P05164 165-273): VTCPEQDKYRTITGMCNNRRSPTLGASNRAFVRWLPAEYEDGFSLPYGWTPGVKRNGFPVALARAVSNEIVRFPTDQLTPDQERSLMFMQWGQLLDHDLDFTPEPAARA
Chain of myeloperoxidase (MPO) (P05164 279-745): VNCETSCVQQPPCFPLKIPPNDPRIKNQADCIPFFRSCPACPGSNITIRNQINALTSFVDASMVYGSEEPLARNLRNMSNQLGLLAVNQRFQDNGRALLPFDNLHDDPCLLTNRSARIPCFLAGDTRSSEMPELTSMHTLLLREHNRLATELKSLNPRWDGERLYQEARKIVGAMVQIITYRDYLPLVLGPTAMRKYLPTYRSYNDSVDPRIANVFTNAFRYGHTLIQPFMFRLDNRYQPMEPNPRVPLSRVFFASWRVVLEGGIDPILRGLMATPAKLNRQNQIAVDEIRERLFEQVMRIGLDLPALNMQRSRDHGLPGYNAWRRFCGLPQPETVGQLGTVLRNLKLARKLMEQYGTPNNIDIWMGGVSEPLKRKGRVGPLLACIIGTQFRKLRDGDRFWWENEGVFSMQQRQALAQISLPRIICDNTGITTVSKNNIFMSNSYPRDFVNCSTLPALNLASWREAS

- IC50: ~1000 nM
SMILES: O=C(N[C@H]1COC(=O)[C@@H](NC(=O)c2cccc(O)c2O)COC(=O)[C@@H](NC(=O)c2cccc(O)c2O)COC1=O)c1cccc(O)c1O [enterobactin]

From PMC6336494 (Nature communications, 2015)
